# Laboratory results reported in patent US10308644B2, “Heterocyclic compounds as immunomodulators” (Incyte Corporation, priority 2016, dated 2019).
# Target: PD-1/PD-L1 (Homo sapiens (Human), UniProt Q9NZQ7)
# Assay: PD-1/PD-L1 Homogeneous Time-Resolved Fluorescence (HTRF) Binding Assay
# Conditions: recombinant human PD-1 (3 nM) and PD-L1 (10 nM), 25° C., PBS pH 7.4
# Description: Example A. PD-1/PD-L1 Homogeneous Time-Resolved Fluorescence (HTRF) Binding Assay
# The assays were conducted in a standard black 384-well polystyrene plate with a final volume of 20 μL. Inhibitors were first serially diluted in DMSO and then added to the plate wells before the addition of other reaction components. The final concentration of DMSO in the assay was 1%. The assays were carried out at 25° C. in the PBS buffer (pH 7.4) with 0.05% Tween-20 and 0.1% BSA. Recombinant human PD-L1 protein (19-238) with a His-tag at the C-terminus was purchased from AcroBiosystems (PD1-H5229). Recombinant human PD-1 protein (25-167) with Fc tag at the C-terminus was also purchased from AcroBiosystems (PD1-H5257). PD-L1 and PD-1 proteins were diluted in the assay buffer and 10 μL was added to the plate well. Plates were centrifuged and proteins were preincubated with inhibitors for 40 minutes. The incubation was followed by the addition of 10 μL of HTRF detection buffer supplemented with Europium cryptate-labeled anti-human IgG (PerkinElmer-AD0212) specific for Fc and anti-His antibody conjugated to SureLight®-Allophycocyanin (APC, PerkinElmer-AD0059H). After centrifugation, the plate was incubated at 25° C. for 60 min. before reading on a PHERAstar FS plate reader (665 nm/620 nm ratio). Final concentrations in the assay were—3 nM PD1, 10 nM PD-L1, 1 nM europium anti-human IgG and 20 nM anti-His-Allophycocyanin. IC50 determination was performed by fitting the curve of percent control activity versus the log of the inhibitor concentration using the GraphPad Prism 5.0 software.
# PD-1/PD-L1, sequence (Q9NZQ7 19-238): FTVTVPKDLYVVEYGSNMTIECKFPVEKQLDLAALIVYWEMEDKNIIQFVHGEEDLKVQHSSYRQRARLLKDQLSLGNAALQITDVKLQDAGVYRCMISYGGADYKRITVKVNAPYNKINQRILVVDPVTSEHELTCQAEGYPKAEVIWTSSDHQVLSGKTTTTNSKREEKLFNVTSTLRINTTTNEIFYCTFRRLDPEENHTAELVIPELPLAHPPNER
row,SMILES,IC50
1,"Cc1c(Nc2nccc3cc(CN4CC[C@@H](O)C4)cnc23)cccc1-c1cccc(-c2nc3cc(CNCCC(=O)O)cc(C#N)c3o2)c1C [Example 101, (R)-3-((7-cyano-2-(3′-(3-((3-hydroxypyrrolidin-1-yl)methyl)-1,7-naphthyridin-8-ylamino)-2,2′-dimethylbiphenyl-3-yl)benzo[d]oxazol-5-yl)methylamino)propanoic acid]",≤ 10 nM
2,"Cc1c(-c2nc3cc(CN4CC[C@@H](O)C4)cc(C#N)c3o2)cccc1-c1cccc(-c2nc3c(s2)CN(C(C)C)CC3)c1C [Example 121, (R)-5-((3-hydroxypyrrolidin-1-yl)methyl)-2-(3′-(5-isopropyl-4,5,6,7-tetrahydrothiazolo[5,4-c]pyridin-2-yl)-2,2′-dimethyl-[1,1′-biphenyl]-3-yl)benzo[d]oxazole-7-carbonitrile]",≤ 10 nM
3,"Cc1c(-c2nc3cc(CN4CC[C@@H](C(=O)O)C4)cc(C#N)c3o2)cccc1-c1cccc(-n2cc3c(n2)CN(C(C)C)CC3)c1Cl [Example 87, (R)-1-((2-(2′-chloro-3′-(6-isopropyl-4,5,6,7-tetrahydro-2H-pyrazolo[3,4-c]pyridin-2-yl)-2-methylbiphenyl-3-yl)-7-cyanobenzo[d]oxazol-5-yl)methyl)pyrrolidine-3-carboxylic acid]",≤ 10 nM
4,"Cc1c(Nc2nccc3cc(C4CCCN4)cnc23)cccc1-c1cccc(-c2nc3cc(CN4CC[C@@H](C(=O)O)C4)cc(C#N)c3o2)c1C (single isomer, unassigned) [Example 98]",≤ 10 nM
5,"Cc1c(-c2nc3cc(CN4CC[C@@H](C(=O)O)C4)cc(Cl)c3o2)cccc1-c1cccc(N2CCC(NCC3(CO)CCC3)CC2)c1Cl [Example 46, (R)-1-((7-chloro-2-(2′-chloro-3′-(4-((1-(hydroxymethyl)cyclobutyl)methylamino)piperidin-1-yl)-2-methylbiphenyl-3-yl)benzo[d]oxazol-5-yl)methyl)pyrrolidine-3-carboxylic acid]",≤ 10 nM
6,"CCN1CCc2cn(-c3cccc(-c4cccc(-c5nc6cc(CN7CC[C@@H](C(=O)O)C7)cc(C#N)c6o5)c4C)c3Cl)nc2C1 [Example 58, (R)-1-((2-(2′-chloro-3′-(6-ethyl-4,5,6,7-tetrahydro-2H-pyrazolo[3,4-c]pyridin-2-yl)-2-methylbiphenyl-3-yl)-7-cyanobenzo[d]oxazol-5-yl)methyl)pyrrolidine-3-carboxylic acid]",≤ 10 nM
7,"Cc1c(-c2nc3cc(CN4CC[C@@H](C(=O)O)C4)cc(Cl)c3o2)cccc1-c1cccc(Nc2nccc3cc(CN4CC[C@H](O)C4)cnc23)c1Cl [Example 29, (R)-1-((7-chloro-2-(2′-chloro-3′-(3-(((S)-3-hydroxypyrrolidin-1-yl)methyl)-1,7-naphthyridin-8-ylamino)-2-methylbiphenyl-3-yl)benzo[d]oxazol-5-yl)methyl)pyrrolidine-3-carboxylic acid]",≤ 10 nM
8,"Cc1c(-c2nc3cc(CN4CC[C@@H](C(=O)O)C4)cc(Cl)c3o2)cccc1-c1cccc(-c2nc3c(s2)CN(CCO)CC3)c1C [Example 61, (R)-1-((7-chloro-2-(3′-(5-(2-hydroxyethyl)-4,5,6,7-tetrahydrothiazolo[5,4-c]pyridin-2-yl)-2,2′-dimethyl-[1,1′-biphenyl]-3-yl)benzo[d]oxazol-5-yl)methyl)pyrrolidine-3-carboxylic acid]",≤ 10 nM
9,"Cc1c(NC(=O)c2nc3c(n2C)CCN(C)C3)cccc1-c1cccc(-c2nc3cc(CN(C)CCC(=O)O)cc(Cl)c3o2)c1C [Example 42, 3-(((7-chloro-2-(3′-(1,5-dimethyl-4,5,6,7-tetrahydro-1H-imidazo[4,5-c]pyridine-2-carboxamido)-2,2′-dimethylbiphenyl-3-yl)benzo[d]oxazol-5-yl)methyl)(methyl)amino) propanoic acid]",≤ 10 nM
10,"CCN(C)CC(=O)N1Cc2nc(-c3cccc(-c4cccc(-c5nc6cc(CN7CC[C@@H](C(=O)O)C7)cc(C#N)c6o5)c4C)c3C)sc2C1 [Example 114, (R)-1-((7-cyano-2-(3′-(5-(2-(ethyl(methyl)amino)acetyl)-5,6-dihydro-4H-pyrrolo[3,4-d]thiazol-2-yl)-2,2′-dimethylbiphenyl-3-yl)benzo[d]oxazol-5-yl)methyl)pyrrolidine-3-carboxylic acid]",≤ 10 nM

# The remaining lines, values ahead:
row,IC50,SMILES
1,≤ 10 nM,"Cc1c(-c2nc3cc(CN4CC[C@@H](O)C4)cc(C#N)c3o2)cccc1-c1cccc(NC(=O)c2nc3c(n2C)CCN(CC2CCC(C)(C(=O)O)CC2)C3)c1Cl (single isomer, unassigned; peak 1) [Example 268]"
2,≤ 10 nM,"CCN(C)CC(=O)N1Cc2nc(-c3cccc(-c4cccc(-c5nc6cc(CN7CC[C@@](C)(C(=O)O)C7)cc(C#N)c6o5)c4C)c3C)sc2C1 [Example 218, (R)-1((7-cyano-2-(3′-(5-(2-(ethyl(methyl)amino)acetyl)-5,6-dihydro-4H-pyrrolo[3,4-d]thiazol-2-yl)-2,2′-dimethylbiphenyl-3-yl)benzo[d]oxazol-5-yl)methyl)-3-methylpyrrolidine-3-carboxylic acid]"
3,10 to 100 nM,"Cc1c(COc2cc(OCc3cncc(C#N)c3)c(CN3CCCC[C@H]3C(=O)O)cc2Cl)cccc1-c1cccc(-c2nc3cc(CN4CC[C@@H](C(=O)O)C4)cc(Cl)c3o2)c1C [Example 149, (S)-1-(4-((3′-(5-(((R)-3-carboxypyrrolidin-1-yl)methyl)-7-chlorobenzo[d]oxazol-2-yl)-2,2′-dimethyl-[1,1′-biphenyl]-3-yl)methoxy)-5-chloro-2-((5-cyanopyridin-3-yl)methoxy)benzyl)piperidine-2-carboxylic acid]"
4,≤ 10 nM,"Cc1c(-c2nc3c(o2)CN(C(=O)CN2CCC(O)CC2)C3)cccc1-c1cccc(-c2nc3cc(CN4CC[C@@H](C(=O)O)C4)cc(C#N)c3o2)c1C [Example 250, (R)-1-((7-cyano-2-(3′-(5-(2-(4-hydroxypiperidin-1-yl)acetyl)-5,6-dihydro-4H-pyrrolo[3,4-d]oxazol-2-yl)-2,2′-dimethyl-[1,1′-biphenyl]-3-yl)benzo[d]oxazol-5-yl)methyl)pyrrolidine-3-carboxylic acid]"
5,≤ 10 nM,"Cc1c(Nc2nccc3cc(CN4CC[C@@H](O)C4)cnc23)cccc1-c1cccc(-c2nc3cc(CN4CC5(C(=O)O)CC4C5)cc(C#N)c3o2)c1C [Example 178, (R)-2-((7-cyano-2-(3′-(3-((3-hydroxypyrrolidin-1-yl)methyl)-1,7-naphthyridin-8-ylamino)-2,2′-dimethylbiphenyl-3-yl)benzo[d]oxazol-5-yl)methyl)-2-aza bicyclo[2.1.1]hexane-4-carboxylic acid]"
6,≤ 10 nM,"Cc1c(Nc2ncnc3cc(CN4CC[C@@H](O)C4)cnc23)cccc1-c1cccc(-c2nc3cc(CN4CCC[C@H](C(=O)O)C4)cc(C#N)c3o2)c1C [Example 206, (S)-1-((7-cyano-2-(3′-(7-(((R)-3-hydroxypyrrolidin-1-yl)methyl)pyrido [3,2-d]pyrimidin-4-ylamino)-2,2′-dimethylbiphenyl-3-yl)benzo[d]oxazol-5-yl)methyl)piperidine-3-carboxylic acid]"
7,≤ 10 nM,"Cc1c(-c2nc3cc(CN4CC[C@@H](O)C4)cc(C#N)c3o2)cccc1-c1cccc(NC(=O)c2nc3c(n2C)CCN(C2CC(C)(C(=O)O)C2)C3)c1Cl (stereo partly drawn) [Example 263, (R)-3-(2-(2-chloro-3′-(7-cyano-5-((3-hydroxypyrrolidin-1-yl)-methyl)benzo[d]oxazol-2-yl)-2′-methylbiphenyl-3-ylcarbamoyl)-1-methyl-6,7-dihydro-1H-imidazo[4,5-c]pyridin-5(4H)-yl)-1-methylcyclobutanecarboxylic acid]"
8,≤ 10 nM,"Cc1c(-c2nc3c(o2)CN(C(=O)CN2CC[C@@H](C(=O)O)C2)C3)cccc1-c1cccc(-c2nc3cc(CN4CC[C@@H](O)C4)cc(C#N)c3o2)c1C [Example 132, (R)-1-(2-(2-(3′-(7-cyano-5-(((R)-3-hydroxypyrrolidin-1-yl)methyl)benzo[d]oxazol-2-yl)-2,2′-dimethyl-[1,1′-biphenyl]-3-yl)-4,6-dihydro-5H-pyrrolo[3,4-d]oxazol-5-yl)-2-oxoethyl)pyrrolidine-3-carboxylic acid]"
9,≤ 10 nM,"Cc1c(Nc2nccc3cc(CN4CC[C@@H](O)C4)cnc23)cccc1-c1cccc(-c2nc3cc(CN[C@H]4CC[C@@H](C(=O)O)C4)cc(C#N)c3o2)c1C [Example 169, (1R,3S)-3-((7-cyano-2-(3′-(3-(((R)-3-hydroxypyrrolidin-1-yl)methyl)-1,7-naphthyridin-8-ylamino)-2,2′-dimethylbiphenyl-3-yl)benzo[d]oxazol-5-yl)methylamino)cyclopentanecarboxylic acid]"
10,≤ 10 nM,"Cc1c(-c2nc3c(o2)CN(C(=O)CN2CCN(C)CC2)C3)cccc1-c1cccc(-c2nc3cc(CN4CC5CC4CC5C(=O)O)cc(C#N)c3o2)c1C (centres unmarked) [Example 253, 2-((7-cyano-2-(2,2′-dimethyl-3,-(5-(2-(4-methylpiperazin-1-yl)acetyl)-5,6-dihydro-4H-pyrrolo[3,4-d]oxazol-2-yl)-[1,1′-biphenyl]-3-yl)benzo[d]oxazol-5-yl)methyl)-2-azabicyclo[2.2.1]heptane-5-carboxylic acid]"
